The record followed here is PMC2972509 (Journal of medicinal chemistry, 2010).

The target in one series is T1, dopamine D4 receptor (Rattus norvegicus, UniProt P30729).
T1 sequence (P30729 1-387): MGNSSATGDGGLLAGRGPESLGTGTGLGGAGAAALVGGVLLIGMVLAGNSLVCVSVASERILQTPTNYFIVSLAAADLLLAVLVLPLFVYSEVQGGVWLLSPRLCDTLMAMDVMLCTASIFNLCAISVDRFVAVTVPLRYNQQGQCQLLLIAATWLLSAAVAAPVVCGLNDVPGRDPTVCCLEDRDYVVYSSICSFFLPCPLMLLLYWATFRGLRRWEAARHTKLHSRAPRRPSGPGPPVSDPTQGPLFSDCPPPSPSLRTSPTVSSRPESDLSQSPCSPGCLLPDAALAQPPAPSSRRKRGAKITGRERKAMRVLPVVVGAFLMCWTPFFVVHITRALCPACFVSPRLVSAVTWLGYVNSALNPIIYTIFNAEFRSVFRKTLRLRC
Description: Radioligand competition binding at cloned dopamine D4 receptor. Particulars: for D4 Ki, nM ± SEM: [3H]MSP, cloned rat D4 receptor in HEK293 membranes; for Selectivity for D4 over off-target receptors: over D2, D3, 5-HT1A, 5-HT2A, 5-HT2C and sigma1 receptors.

Series [1] in a line: Preliminary disposition studies in mice. Conditions: for Tmax: male, CD1, mouse, plasma, ip; for Maximum brain concentration (mean ± SD) / Maximum plasma concentration (mean ± SD): parent compound, 7 after 30 min, 13 after 15 min. The class given is in vivo.
The target in series [2] is T2, cloned D4 dopamine receptor (Rattus norvegicus, UniProt P30729).
T2 sequence (P30729 1-387): T1 sequence (P30729 1-387)
Description: D4 receptor functional assay: decrease in forskolin-stimulated cAMP accumulation. The class given is cell-based. Particulars: Gi/o-mediated. In general terms: Changes in cAMP serve as a functional read-out for many G protein-coupled receptors.

The term Tmax denotes the time at which the peak concentration occurs.

SMILES strings stand for the structures. Several values for one entry are separate records, joined by “and”; a condition that tells them apart may be missing. Equal values may be shown once. Entries after “also recorded” stand apart in the source; their conditions may differ. A value given as a limit tells only on which side of the number the result lay.

Turning to `O=C(NCCN1CCN(c2noc3ccccc23)CC1)c1ccc(F)cc1` [Compound 11, N-[2-[4-(1,2-Benzisoxazol-3-yl)piperazin-1-yl]ethyl]-4-fluorobenzamide], at dopamine D4 receptor, the “Fold higher D4 affinity than the 3-methoxy analog 5” value was “approximately 6 fold” and the “D4 Ki, nM ± SEM” value was “subnanomolar”.
Consider `N#Cc1cccnc1N1CCN(CCNC(=O)c2ccc(F)cc2)CC1` [Compound 13, N-[2-[4-(3-Cyanopyridin-2-yl)piperazin-1-yl]ethyl]-4-fluorobenzamide], for which, at dopamine D4 receptor, the “D4 Ki, nM ± SEM” value is recorded as “subnanomolar; also recorded: nanomolar affinity” and the “Selectivity for D4 over off-target receptors” value is recorded as more than 100 fold. The Tmax in series [1] (10 mg/kg) is 15 min. Also, in series [1] (mice, 10 mg/kg i.p.), the “Time of mean brain Cmax” value worked out at 15 min, the “Time up to which quantifiable brain levels were consistently evident” value is “up to 60 min”, the “Maximum brain concentration (mean ± SD)” value is listed as 0.47 ± 0.20 µg/g and the “Maximum plasma concentration (mean ± SD)” value is listed as 0.13 ± 0.10 µg/mL. The “Plasma concentration after 30 minutes (below limit of quantitation)” value in series [1] (mice, 10 mg/kg i.p., 0.2 ml plasma) is given as “less than 0.1 µg/mL”. In addition, the “Functional property at D4 receptor” value in series [2] is on record as “agonist properties; also recorded: agonists”.
Turning to `COc1cccc(C(=O)NCCN2CCN(c3ncccc3C#N)CC2)c1` [Compound 7, N-[2-[4-(3-Cyanopyridin-2-yl)piperazin-1-yl]ethyl]-3-methoxybenzamide], at dopamine D4 receptor, the “D4 Ki, nM ± SEM” value is listed as “nanomolar affinity” and the “Selectivity for D4 over off-target receptors” value was more than 100 fold. In series [1] (10 mg/kg), the Tmax was 30 min. Moreover, in series [1] (mice, 10 mg/kg i.p.), the “Time up to which plasma concentrations were consistently detected” value is given as “up to 60 minutes”, the “Time up to which quantifiable brain levels were consistently evident” value is on record as “up to 30 min” and the “Maximum brain concentration (mean ± SD)” value is 0.14 ± 0.02 µg/g. In addition, the “Maximum plasma concentration (mean ± SD)” value in series [1] (mice, 10 mg/kg i.p., 10 mg/kg) is 0.37 ± 0.02 µg/mL and 0.37 ± 0.21 µg/mL. Further, in series [2], the “Functional property at D4 receptor” value is on record as “agonist properties; also recorded: agonists”.
